Our source for the EC50 values is patent US20250340537A1, “PHARMACEUTICALLY ACTIVE COMPOUNDS, COMPOSITIONS, AND METHODS FOR MODULATING PENDRIN” (ARBORMED Co., Ltd., priority 2022, published 2025).

The target of the experiment is T1, H723R-pendrin (Homo sapiens, UniProt O43511, H723R).
T1 construct: expressed in transfected cells; host or cells: PANC-1
T1 sequence (O43511 1-780 H723R): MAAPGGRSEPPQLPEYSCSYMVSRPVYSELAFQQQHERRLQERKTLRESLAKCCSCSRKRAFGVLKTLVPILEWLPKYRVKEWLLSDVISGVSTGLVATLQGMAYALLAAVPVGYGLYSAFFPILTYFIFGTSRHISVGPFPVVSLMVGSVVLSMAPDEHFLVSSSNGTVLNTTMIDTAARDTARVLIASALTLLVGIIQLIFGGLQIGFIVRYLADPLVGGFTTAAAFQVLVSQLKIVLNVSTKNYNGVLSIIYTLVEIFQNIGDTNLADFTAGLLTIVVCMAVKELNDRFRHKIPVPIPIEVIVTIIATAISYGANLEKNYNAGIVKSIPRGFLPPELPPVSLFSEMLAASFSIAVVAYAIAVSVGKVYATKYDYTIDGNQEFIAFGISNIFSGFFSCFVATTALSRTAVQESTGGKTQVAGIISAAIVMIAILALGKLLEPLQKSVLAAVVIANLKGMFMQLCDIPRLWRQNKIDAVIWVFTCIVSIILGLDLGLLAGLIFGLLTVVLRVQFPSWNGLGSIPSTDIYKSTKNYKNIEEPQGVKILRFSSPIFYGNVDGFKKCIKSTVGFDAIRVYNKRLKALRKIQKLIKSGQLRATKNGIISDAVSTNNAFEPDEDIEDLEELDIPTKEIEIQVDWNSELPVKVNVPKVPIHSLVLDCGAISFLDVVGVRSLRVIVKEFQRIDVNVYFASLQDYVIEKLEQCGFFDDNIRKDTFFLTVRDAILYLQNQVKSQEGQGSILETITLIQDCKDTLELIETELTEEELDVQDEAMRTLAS
The experiment is described as follows: YFP fluorescence quenching assay (Cl−/I− exchange activity of pendrin). Type of experiment: cell-based. The following applies: PANC-1 cells stably expressing human H723R-pendrin and YFP-F46L/H148Q/I152L; compound incubation 20-24 hours; iodide influx. The text has this:
Halide sensor YFP F46L/H148Q/I152L is quenched by halide ion like Iodide. When such YFP is expressed in a cell, it expresses in the cytoplasm.
To measure H723R-PDS activity, PANC-1 cells were stably transfected with halide sensors YFP-F46L/H148Q/I152L and H723R-PDS which has problems with membrane trafficking due to misfolding.
If the cell-treated drug is a corrector for H723R-PDS, H723R-PDS will translocate normally to the plasma membrane.
At this time, when treated with a high-concentration iodide solution outside the cell, iodide enters the cell due to the Cl−/I− exchange activity of pendrin, and the fluorescence of the halide sensor YFP decreases.
PANC-1 cells were cultured in Dulbecco's Modified Eagle's Medium with 10% fetal bovine serum, 2 mM glutamine, 100 units/ml penicillin and 100 µg/ml streptomycin. For high-throughput screening, PANC-1 cells were stably transfected with human H723R-pendrin and halide sensor YFP-F46L/H148Q/I152L.
PANC-1 cells expressing human H723R-pendrin and YFP-F46L/H148Q/I152L were plated in 96-well microplates at a density of 2×10^4 cells per well and grown for 20-24 hours at 37° C. (90% humidity 5% CO2). Then these cells were treated with 50 μl growth medium containing test compounds and incubated for 20-24 hours. For YFP quenching assay, each well of the 96-well plate was washed 2 times with 200 μl of PBS, and it was filled with 50 μl of HEPES-buffered solution (140 mM NaCl, 5 mM KCl, 1 mM MgCl2, 1 mM CaCl2, 10 mM D-glucose, 10 mM HEPES; pH 7.4 with NaOH). After 10 minutes of incubation at 37° C., the 96-well plate was moved on the FLUOstar Omega Microplate Reader (BMG Labtech, Ortenberg, Germany) for a fluorescence assay. Each well was assayed individually for H723R-pendrin mediated I^− influx by recording fluorescence (495±15 nm excitation, 520±20 nm emission) every 400 ms for 1 second (baseline). Then, 50 μL of NaI-substituted HEPES-buffered solution (NaI replacing NaCl) was added using a liquid injector at 1 second and YFP fluorescence was recorded every 400 ms for 10 seconds. The initial iodide influx rate was determined from the initial slope of fluorescence by nonlinear regression, after the infusion of iodide.
It is indicated as EC50 with the following key: A=EC50 less than 5 uM; B=EC50 greater than 5 uM, but less than 10 uM; C=EC50 greater than 10 uM.
For `COc1ccc(-c2ccnc(C3=C(N)N(c4ccccc4F)CC3=O)n2)cc1OC` [Compound 1], the EC50 is greater than 10 µM.

Compound `COc1ccc(-c2cnc(C3=C(N)N(c4ccccc4F)CC3=O)nc2)cc1OC` [Compound 2] gave a concentration for a half-maximal effect (EC50) greater than 10 µM.

The compound `COc1ccc(-c2cccc(C3=C(N)N(c4ccccc4F)CC3=O)n2)cc1OC` [Compound 3] came in with an EC50 greater than 10 µM.

`COc1ccc(-c2cncc(C3=C(N)N(c4ccccc4F)CC3=O)n2)cc1OC` [Compound 4]: the half-maximal effective concentration (EC50) is 5 to 10 µM.

As to `COc1ccc(-c2nccc(C3=C(N)N(c4ccccc4F)CC3=O)n2)cc1OC` [Compound 5], the concentration for a half-maximal effect (EC50) was greater than 10 µM.

`COc1ccc(-c2cncc(C3=C(N)N(c4ccccc4Cl)CC3=O)n2)cc1OC` [Compound 6] yielded a half-maximal effective concentration (EC50) of 5 to 10 µM.

Regarding `COc1ccc(-c2cncc(C3=C(N)N(c4ccccc4Cl)CC3=O)c2)cc1OC` [Compound 7], the EC50 was greater than 10 µM.

Turning to `NC1=C(c2cncc(-c3ccc4c(c3)OCO4)n2)C(=O)CN1c1ccccc1Cl` [Compound 10], the EC50 was greater than 10 µM.

On to `NC1=C(c2cncc(-c3ccc4ocnc4c3)n2)C(=O)CN1c1ccccc1Cl` [Compound 11], for which the concentration for a half-maximal effect (EC50) is greater than 10 µM.

In turn, `NC1=C(c2cncc(-c3ccc4nccnc4c3)n2)C(=O)CN1c1ccccc1Cl` [Compound 12] registered an EC50 greater than 10 µM.

As to `COc1ccc(-c2cncc(C3=C(N)N(C4CCCC4)CC3=O)n2)cc1OC` [Compound 14], the EC50 is 5 to 10 µM.

In turn, `COc1ccc(-c2cncc(C3=C(N)N(CC4CCCC4)CC3=O)n2)cc1OC` [Compound 15] came in with an EC50 of 5 to 10 µM.

On to `COc1cc2c(cc1OC)CN(c1cncc(C3=C(N)N(c4ccccc4Cl)CC3=O)n1)CC2` [Compound 16], for which the EC50 was greater than 10 µM.

Regarding `COc1ccc(-c2cncc(C3=C(N)N(CCC(F)(F)F)CC3=O)n2)cc1OC` [Compound 17], the EC50 is greater than 10 µM.

As for `NC1=C(c2cncc(-c3ccc(O)c(O)c3)n2)C(=O)CN1CCC(F)(F)F` [Compound 19], the EC50 was greater than 10 µM.

Compound `COc1ccc(-c2cncc(C3=C(N)N(c4ccccc4Cl)CC3=O)n2)c(OC)c1` [Compound 20] came in with an EC50 of 5 to 10 µM.

`COc1cc(-c2cncc(C3=C(N)N(c4ccccc4Cl)CC3=O)n2)cnc1OC` [Compound 21] displayed a concentration for a half-maximal effect (EC50) greater than 10 µM.

In the case of `COc1cc(OC)cc(-c2cncc(C3=C(N)N(c4ccccc4Cl)CC3=O)n2)c1` [Compound 22], the EC50 is greater than 10 µM.

The compound `CNc1ccc(-c2cncc(C3=C(N)N(c4ccccc4Cl)CC3=O)n2)cc1NC` [Compound 23] displayed a 50% effective concentration (EC50) greater than 10 µM.

The compound `NC1=C(c2cncc(-c3cc(O)cc(O)c3)n2)C(=O)CN1c1ccccc1Cl` [Compound 24] returned an EC50 greater than 10 µM.

`COC(CN1CCN(c2cncc(C3=C(N)N(c4ccccc4Cl)CC3=O)n2)CC1)OC` [Compound 25] displayed an EC50 greater than 10 µM.

The compound `CNc1ccc(-c2cncc(C3=C(N)N(CC(C)C)CC3=O)n2)cc1NC` [Compound 26] gave an EC50 greater than 10 µM.

For `CC(C)CN1CC(=O)C(c2cncc(-c3ccc4c(c3)n(C)c(=O)n4C)n2)=C1N` [Compound 27], the EC50 was greater than 10 µM.

`COc1ccc(-c2cncc(C3=C(N)N(c4ccccc4Cl)CC3=O)n2)cc1O` [Compound 29] registered an EC50 greater than 10 µM.

The compound `NC1=C(c2cncc(-c3ccc(O)cc3O)n2)C(=O)CN1c1ccccc1Cl` [Compound 30] showed an EC50 greater than 10 µM.

In turn, `NC1=C(c2cncc(-c3ccc(OC(F)(F)F)c(O)c3)n2)C(=O)CN1c1ccccc1Cl` [Compound 31] registered an EC50 greater than 10 µM.

As for `NC1=C(c2cncc(-c3ccc(O)c(OC(F)(F)F)c3)n2)C(=O)CN1c1ccccc1Cl` [Compound 32], the EC50 was in the range of 5 to 10 µM.

With `NC1=C(c2cncc(-c3ccc4nc[nH]c4c3)n2)C(=O)CN1c1ccccc1Cl` [Compound 34], the concentration for a half-maximal effect (EC50) is greater than 10 µM.

In turn, `NC1=C(c2cnc(-c3ccc(O)c(O)c3)cn2)C(=O)CN1c1ccccc1Cl` [Compound 35] displayed a concentration for a half-maximal effect (EC50) greater than 10 µM.

For the compound `COc1ccc(-c2cncc(C3=C(N)N(CC4CCOC4)CC3=O)n2)cc1OC` (stereo not drawn) [Compound 36], the EC50 was greater than 10 µM.

In turn, `COc1ccc(-c2cncc(C3=C(N)N(c4ccccc4OC)CC3=O)n2)cc1OC` [Compound 37] registered an EC50 greater than 10 µM.

In the case of `NC1=C(c2cncc(-c3cnc(O)c(O)c3)n2)C(=O)CN1c1ccccc1Cl` [Compound 38], the EC50 is greater than 10 µM.

As to `COc1ccc(-c2cncc(C3=C(N)N(CC4CCNC4)CC3=O)n2)cc1OC` (stereo not drawn) [Compound 39], the EC50 is greater than 10 µM.

As to `NC1=C(c2cncc(-c3ccc(O)c(O)c3)n2)C(=O)CN1CC1CCNC1` (stereo not drawn) [Compound 40], the EC50 was greater than 10 µM.

`NC1=C(c2cncc(-c3ccc(O)c(O)c3)n2)C(=O)CN1CC1CCOC1` (stereo not drawn) [Compound 41] returned an EC50 greater than 10 µM.

As for `COc1ccc(-c2cncc(C3=C(N)N(c4ccccc4O)CC3=O)n2)cc1OC` [Compound 42], the EC50 is greater than 10 µM.

Compound `NC1=C(c2cncc(-c3ccc(O)c(O)c3)n2)C(=O)CN1c1ccccc1O` [Compound 43] yielded an EC50 greater than 10 µM.

In the case of `COc1ccc(-c2cncc(C3=C(N)N(CCC4CCCC4)CC3=O)n2)cc1OC` [Compound 44], the EC50 is less than 5 µM.

`NC1=C(c2cncc(-c3ccc(O)c(O)c3)c2)C(=O)CN1c1ccccc1Cl` [Compound 47] showed an EC50 greater than 10 µM.

Consider `COc1ccc(-c2cncc(C3=C(N)N(CC4CCCCC4)CC3=O)n2)cc1OC` [Compound 48], for which the EC50 is greater than 10 µM.

`COc1ccc(-c2cncc(C3=C(N)N(CC4CCCC4)CC3=O)c2)cc1OC` [Compound 50] had an EC50 greater than 10 µM.

`NC1=C(c2cncc(-c3ccc(O)c(O)c3)c2)C(=O)CN1CC1CCOC1` (stereo not drawn) [Compound 51]: the concentration for a half-maximal effect (EC50) was greater than 10 µM.

In turn, `COc1ccc(-c2cncc(C3=C(N)N(CC4CCN(C)C4)CC3=O)n2)cc1OC` (stereo not drawn) [Compound 52] yielded an EC50 greater than 10 µM.

With `CN1CCC(CN2CC(=O)C(c3cncc(-c4ccc(O)c(O)c4)n3)=C2N)C1` (stereo not drawn) [Compound 53], the EC50 is greater than 10 µM.

The compound `NC1=C(c2cncc(-c3ccc(O)c(O)c3)c2)C(=O)CN1CC1CCCC1` [Compound 54] returned an EC50 greater than 10 µM.

In turn, `COc1ccc(-c2cncc(C3=C(N)N(CC4CCNC4)CC3=O)c2)cc1OC` (stereo not drawn) [Compound 55] registered an EC50 greater than 10 µM.

For the compound `COc1ccc(-c2ccnc(C3=C(N)N(CC4CCCC4)CC3=O)n2)cc1OC` [Compound 56], the half-maximal effective concentration (EC50) is greater than 10 µM.

Compound `NC1=C(c2ccnc(-c3ccc(O)c(O)c3)n2)C(=O)CN1c1ccccc1F` [Compound 57] showed a half-maximal effective concentration (EC50) of less than 5 µM.

With `COc1ccc(-c2ccc(C3=C(N)N(c4ccccc4Cl)CC3=O)cn2)cc1OC` [Compound 58], the EC50 was greater than 10 µM.

`NC1=C(c2ccc(-c3ccc(O)c(O)c3)nc2)C(=O)CN1c1ccccc1Cl` [Compound 59] returned an EC50 greater than 10 µM.

`NC1=C(c2cncc(-c3ccc(O)c(O)c3)c2)C(=O)CN1CC1CCNC1` (stereo not drawn) [Compound 60]: the EC50 was greater than 10 µM.

For the compound `COc1ccc(-c2cncc(C3=C(N)N(C4CCC(F)(F)C4)CC3=O)n2)cc1OC` (stereo not drawn) [Compound 61], the half-maximal effective concentration (EC50) was greater than 10 µM.

`COc1ccc(-c2cncc(C3=C(N)N(c4cccc(Cl)c4Cl)CC3=O)n2)cc1OC` [Compound 63] showed an EC50 of 5 to 10 µM.

For the compound `NC1=C(c2cncc(-c3ccc(O)c(O)c3)n2)C(=O)CN1c1cccc(Cl)c1Cl` [Compound 64], the concentration giving a half-maximal response (EC50) lay within 5 to 10 µM.
